# Test results: patent US9085578B2, “Heterocyclic compound” (Takeda Pharmaceutical Company Limited, priority 2012, dated 2015)
# Biological target: T1, Tyk2 (Homo sapiens, UniProt P29597)
# T1 construct: purchased Invitrogen
# Experiment: Tyk2 enzyme inhibition test (LANCE method)
# Assay type: biochemical
# Settings: 1 uM test compound, ULight-JAK1 peptide substrate, well without enzyme = 100% inhibition, read-out: Tyk2 enzyme inhibitory activity (%, 1 uM)
# Description: Tyk2 enzyme inhibitory activity of test compounds was measured by LANCE method (PerkinElmer). First, a test compound diluted with assay buffer (50 mM HEPES (pH=7.5), 10 mM MgCl2, 1 mM EGTA, 2 mM DTT, 0.01% Tween20, 0.01% BSA) was added to 384-well plate at 2 μL each. Then, a Tyk2 (Invitrogen) solution and a fluorescence-labeled peptide substrate (ULight-JAK1, PerkinElmer) solution diluted with assay buffer at 375 ng/mL and 300 nM, respectively were added at 2 μL each. Then, enzyme reaction was started by adding 2 μL each of ATP solution prepared with assay buffer at 30 μM. After the reaction at room temperature for 1 hr, Detection Buffer (PerkinElmer) prepared to be 20 mM EDTA, 4 nM europium-labeled anti-phosphotyrosine antibody (PerkinElmer) was added at 6 μL each. After standing at room temperature for 1 hr, fluorescence intensity (excitation wavelength 340 nm, fluorescence wavelength 665 nm, delay time 100 microsecond) was measured by a plate reader, Envision (PerkinElmer). The inhibitory activity of each compound was calculated as relative value where fluorescence intensity of a well without enzyme is considered as 100% inhibition.
# T1 sequence (P29597 whole entry): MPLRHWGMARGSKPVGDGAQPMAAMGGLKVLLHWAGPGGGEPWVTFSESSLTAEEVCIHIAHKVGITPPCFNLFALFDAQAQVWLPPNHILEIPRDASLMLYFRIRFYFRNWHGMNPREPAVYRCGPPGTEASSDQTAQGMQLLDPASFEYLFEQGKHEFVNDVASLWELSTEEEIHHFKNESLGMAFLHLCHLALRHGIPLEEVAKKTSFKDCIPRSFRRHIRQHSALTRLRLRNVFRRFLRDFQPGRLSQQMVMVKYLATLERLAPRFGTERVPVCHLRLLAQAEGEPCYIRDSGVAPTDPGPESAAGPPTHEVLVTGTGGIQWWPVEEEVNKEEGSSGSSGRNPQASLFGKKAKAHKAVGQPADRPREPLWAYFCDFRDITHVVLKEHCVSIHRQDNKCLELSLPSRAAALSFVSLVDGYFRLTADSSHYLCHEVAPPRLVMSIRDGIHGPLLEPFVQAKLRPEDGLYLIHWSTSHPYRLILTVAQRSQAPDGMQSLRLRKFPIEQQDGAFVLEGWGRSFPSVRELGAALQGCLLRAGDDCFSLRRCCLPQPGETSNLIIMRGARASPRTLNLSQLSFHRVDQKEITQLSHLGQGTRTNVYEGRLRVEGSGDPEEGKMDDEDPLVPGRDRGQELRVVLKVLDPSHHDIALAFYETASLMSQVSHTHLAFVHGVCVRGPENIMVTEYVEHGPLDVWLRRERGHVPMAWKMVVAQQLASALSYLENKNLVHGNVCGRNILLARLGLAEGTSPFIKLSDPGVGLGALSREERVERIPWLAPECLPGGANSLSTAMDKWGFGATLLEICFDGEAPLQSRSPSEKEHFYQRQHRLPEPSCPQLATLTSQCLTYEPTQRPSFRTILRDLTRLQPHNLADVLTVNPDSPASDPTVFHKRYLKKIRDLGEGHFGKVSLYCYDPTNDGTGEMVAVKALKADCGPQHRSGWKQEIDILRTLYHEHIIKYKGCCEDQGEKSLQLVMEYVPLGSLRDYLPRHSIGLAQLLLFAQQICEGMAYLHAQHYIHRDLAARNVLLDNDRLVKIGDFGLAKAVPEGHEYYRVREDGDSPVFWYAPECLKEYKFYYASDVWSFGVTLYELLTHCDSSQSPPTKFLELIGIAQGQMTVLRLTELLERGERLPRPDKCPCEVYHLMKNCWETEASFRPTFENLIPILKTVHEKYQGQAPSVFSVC
row,SMILES,inhibition at 1 µM [%]
1,"Cc1ccccc1-n1cc(Br)c2[nH]nc(N)c2c1=O [Example 1, 3-amino-7-bromo-5-(2-methylphenyl)-1,5-dihydro-4H-pyrazolo[4,3-c]pyridin-4-one]",40
2,"CC(C)C(C)n1cc(-c2ccn(C)n2)c2[nH]nc(N)c2c1=O (stereo not drawn) [Example 13, 3-amino-5-(3-methylbutan-2-yl)-7-(1-methyl-1H-pyrazol-3-yl)-1,5-dihydro-4H-pyrazolo[4,3-c]pyridin-4-one]",98
3,"CC1CCCCC1n1cc(-c2ccn(C)n2)c2[nH]nc(N)c2c1=O (stereo not drawn) [Example 14, 3-amino-5-(2-methylcyclohexyl)-7-(1-methyl-1H-pyrazol-3-yl)-1,5-dihydro-4H-pyrazolo[4,3-c]pyridin-4-one]",98
4,"Cn1ccc(-c2cn(-c3c(F)cccc3F)c(=O)c3c(N)n[nH]c23)n1 [Example 15, 3-amino-5-(2,6-difluorophenyl)-7-(1-methyl-1H-pyrazol-3-yl)-1,5-dihydro-4H-pyrazolo[4,3-c]pyridin-4-one]",100
5,"N#Cc1cc2[nH]nc(N)c2c(=O)n1-c1ccccc1Cl [Example 16, 3-amino-5-(2-chlorophenyl)-4-oxo-4,5-dihydro-1H-pyrazolo[4,3-c]pyridine-6-carbonitrile]",82
6,"Nc1n[nH]c2c(-c3ccccn3)cn(-c3ccccc3Cl)c(=O)c12 [Example 24, 3-amino-5-(2-chlorophenyl)-7-(pyridin-2-yl)-1,5-dihydro-4H-pyrazolo[4,3-c]pyridin-4-one]",98
7,"N#Cc1ccnc(-c2cn(-c3ccccc3Cl)c(=O)c3c(N)n[nH]c23)c1 [Example 28, 2-(3-amino-5-(2-chlorophenyl)-4-oxo-4,5-dihydro-1H-pyrazolo[4,3-c]pyridin-7-yl)isonicotinonitrile]",100
8,"Nc1n[nH]c2c(-c3csc(CN4CCCC4)c3)cn(-c3ccccc3Cl)c(=O)c12 [Example 38, 3-amino-5-(2-chlorophenyl)-7-(5-(pyrrolidin-1-ylmethyl)-3-thienyl)-1,5-dihydro-4H-pyrazolo[4,3-c]pyridin-4-one]",95
9,"Cn1ccc(-c2cn(-c3ccccc3C(F)(F)F)c(=O)c3c(N)n[nH]c23)n1 [Example 43, 3-amino-7-(1-methyl-1H-pyrazol-3-yl)-5-(2-(trifluoromethyl)phenyl)-1,5-dihydro-4H-pyrazolo[4,3-c] pyridin-4-one]",92
